Literature values, collected in US20050070524A1, “Compositions of a cyclooxygenase-2 selective inhibitor and an anticonvulsant agent for the treatment of central nervous system disorders” (Pharmacia Corporation, priority 2003, published 2005).

How the values were obtained:
[1] = tested on: high-voltage-activated Ca^2+ currents; settings: rat cortical neurons
[2] = tested on: high-voltage-activated Ca^2+ channels; settings: isolated CA1 hippocampal neurons of rats

Row | SMILES | inhibition of high-voltage-activated Ca^2+ currents [1] | inhibition of high-voltage-activated Ca^2+ channels [2]
1 | Nc1nnc(-c2cccc(Cl)c2Cl)c(N)n1 [lamotrigine] | large dose-dependent inhibition | –
2 | CC[C@@H](C(N)=O)N1CCCC1=O [levetiracetam] | – | directly and irreversibly inhibited
